Test results: paper PMC5618672, “Rationally designed ligand‐independent peptide inhibitors of TREM‐1 ameliorate collagen‐induced arthritis” (Journal of Cellular and Molecular Medicine, 2017)

What was measured:
joints of mice with CIA = experiment: Histology assessment of joints in CIA; assay type: in vivo, mouse (DBA/1); design: dose or concentration left out as unconfirmed
Method: Animal studies were performed by Bolder BioPATH (Boulder, CO, USA). CIA was induced in male 6‐ to 7‐week‐old DBA/1 mice by immunization with bovine type II collagen as previously described 19. Briefly, mice were injected intradermally with 100 μl of Freund's complete adjuvant containing 250 μg of bovine type II collagen (2 mg/ml final concentration) at the base of the tail on day 0 and again on day 21. On day 24, mice were randomized by body weight into treatment groups. At enrolment on day 24, the mean mouse weight was 20 g. Arthritis onset occurred on days 26‐38. Starting day 24, mice were injected intraperitoneally ([…]), GF9‐sHDL (2.5 mg/kg), GA/E31‐dHDL ([…]), GA/E31‐sHDL ([…]) or with PBS. Mice were weighed on study days 24, 26, 28, 30, 32, 34, 36 and 38 (prior to necropsy). Daily clinical scores were given on a scale of 0–5 for each of the paws on days 24–38 using previously described criteria 19. […]
At the end of study, fore paws, hind paws and knees were harvested, fixed in 10% neutral buffered formalin for 1–2 days, and then decalcified in 5% formic acid for 4–5 days before standard processing for paraffin embedding. […] The joints were then assessed using 0–5 scale for inflammation, pannus formation, cartilage damage, bone resorption and periosteal new bone formation as previously reported 19. A summed histopathology score (sum of five parameters, 0–25 scale) was also determined.

mice with CIA = experiment: Collagen‐induced arthritis (CIA) model, clinical arthritis score; assay type: in vivo, mouse (DBA/1); settings: 0.1 mg/kg, positive control; data not shown
Method: Animal studies were performed by Bolder BioPATH (Boulder, CO, USA). CIA was induced in male 6‐ to 7‐week‐old DBA/1 mice by immunization with bovine type II collagen as previously described 19. Briefly, mice were injected intradermally with 100 μl of Freund's complete adjuvant containing 250 μg of bovine type II collagen (2 mg/ml final concentration) at the base of the tail on day 0 and again on day 21. On day 24, mice were randomized by body weight into treatment groups. At enrolment on day 24, the mean mouse weight was 20 g. Arthritis onset occurred on days 26‐38. Starting day 24, mice were injected intraperitoneally (i.p.) daily for 14 consecutive days with GF9 (2.5 and 25 mg/kg), GF9‐G (25 mg/kg), GF9‐dHDL (2.5 mg/kg), GF9‐sHDL (2.5 mg/kg), GA/E31‐dHDL (dose equivalent to 4 mg of GF9/kg), GA/E31‐sHDL (dose equivalent to 4 mg of GF9/kg) or with PBS. Mice were weighed on study days 24, 26, 28, 30, 32, 34, 36 and 38 (prior to necropsy). Daily clinical scores were given on a scale of 0–5 for each of the paws on days 24–38 using previously described criteria 19. On day 38, mice were killed for necropsy.

C[C@@H]1C[C@H]2[C@@H]3CCC4=CC(=O)C=C[C@]4(C)[C@@]3(F)[C@@H](O)C[C@]2(C)[C@@]1(O)C(=O)CO [dexamethasone]
joint lesions (histopathology) (joints of mice with CIA; arthritic mice, day 38, not shown): No lesions were observed
reduction of summed histopathology scores compared to vehicle‐treated mice (joints of mice with CIA; data not shown): 99%
anti‐arthritic effect relative to GF9 at 25 mg/kg (mice with CIA): comparable
